The text below walks through data of US20220081435A1, “ANDROGEN RECEPTOR PROTEIN DEGRADERS” (THE REGENTS OF THE UNIVERSITY OF MICHIGAN, priority 2019, published 2022).

Where two headings read alike, the source gives them in different places.

In test [1] the test system is AR-amplified prostate cancer cells. To be noted: cited from earlier work.
For a further test, the target named is T1, VHL-ElonginBC complex (Homo sapiens, UniProt P40337).
T1 construct: His-TEV (cleaved yes); made in house; host or cells: E. coli BL21(DE3)
As to the kind of experiment: Fluorescence-polarization competitive binding assay for VHL protein. On the procedure: Cloning and Purification of VHL-ElonginBC complex. […] The cells were induced overnight with 0.4 mM IPTG at 24° C. […] The cell suspension was lysed by sonication and debris removed via centrifugation. […] The protein complex was eluted in 20 mM Tris-HCl pH 7.0, 200 mM NaCl and 300 mM Imidazole, dialyzed into 20 mM Tris-HCl pH 7.0, 150 mM NaCl, and 0.01% bME and incubated with TEV protease overnight at 4° C. […] The flow through containing the VHL complex was diluted to 75 mM NaCl and applied to a HiTrap Q column (GE Healthcare). The sample was eluted with a salt gradient (0.075-1 M NaCl), concentrated and further purified on a Superdex S75 column (GE Healthcare) pre-equilibrated with 20 mM Bis-Tris 7.0, 150 mM NaCl and 1 mM DTT. Samples were aliquoted and stored at −80° C.
The IC50 and Ki values of compounds were determined in competitive binding experiments. […] IC50 values were determined by nonlinear regression fitting of the competition curves. Ki values of competitive inhibitors were obtained directly by nonlinear regression fitting, based upon the KD values of the probe and concentrations of the protein and probe in the competitive assays. All the FP competitive experiments were performed in duplicate in three independent experiments.

Another test deals with T2, AR protein (Homo sapiens, UniProt P10275, T878A).
T2 construct: The percent AR protein degradation induced by these compounds at various concentrations in LNCaP cells; host or cells: LNCaP
T2 sequence (P10275 1-920 T878A): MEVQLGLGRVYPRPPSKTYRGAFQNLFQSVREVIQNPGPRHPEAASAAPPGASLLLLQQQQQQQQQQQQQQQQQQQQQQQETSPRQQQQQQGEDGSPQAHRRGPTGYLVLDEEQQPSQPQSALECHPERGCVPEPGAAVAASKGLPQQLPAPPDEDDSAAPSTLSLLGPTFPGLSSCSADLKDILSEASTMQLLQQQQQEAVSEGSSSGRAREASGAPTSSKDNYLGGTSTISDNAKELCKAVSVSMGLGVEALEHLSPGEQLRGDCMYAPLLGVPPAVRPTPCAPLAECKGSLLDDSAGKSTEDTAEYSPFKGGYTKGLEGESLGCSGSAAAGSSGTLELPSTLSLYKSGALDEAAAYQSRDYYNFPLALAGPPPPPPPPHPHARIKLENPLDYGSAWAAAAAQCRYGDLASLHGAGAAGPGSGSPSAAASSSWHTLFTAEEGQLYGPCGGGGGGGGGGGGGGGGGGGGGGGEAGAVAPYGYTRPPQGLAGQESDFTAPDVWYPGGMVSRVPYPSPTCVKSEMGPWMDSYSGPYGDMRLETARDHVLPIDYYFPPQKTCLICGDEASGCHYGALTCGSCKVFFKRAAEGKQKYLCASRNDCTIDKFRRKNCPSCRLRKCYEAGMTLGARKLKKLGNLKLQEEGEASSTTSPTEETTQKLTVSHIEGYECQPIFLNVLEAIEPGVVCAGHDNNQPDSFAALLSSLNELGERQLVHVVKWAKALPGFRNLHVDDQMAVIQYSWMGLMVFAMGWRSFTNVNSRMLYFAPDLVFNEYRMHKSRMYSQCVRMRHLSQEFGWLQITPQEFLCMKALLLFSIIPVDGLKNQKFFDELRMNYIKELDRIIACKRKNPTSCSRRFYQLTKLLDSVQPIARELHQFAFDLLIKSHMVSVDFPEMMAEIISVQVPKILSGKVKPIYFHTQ
In words: AR protein degradation in LNCaP cells (Western blotting). Type of test: cell-based. To be noted: for Dmax at 0.1 µM / Dmax at 1 µM / Dmax at 10 µM: LNCaP, read-out: % AR protein degradation in LNCaP Cells. In a few lines: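 LNCaP cells were cultured with 10% FBS at 37° C and lysed in RIPA buffer after treatment. AR levels were measured by Western blot. Degradation percentage was quantified by densitometry as the background-corrected AR band relative to the loading control.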
(Immunoblotting shows a protein as a band on a membrane.)

The mark [2] stands for this setting: 0.1 μM, treatment time 6 h, average of three independent experiments.
Where [3] appears, read: 1 μM, treatment time 6 h, average of three independent experiments.
Setting [4] is: 10 μM, treatment time 6 h, average of three independent experiments.

Consider `Cc1ncsc1-c1ccc(CNC(=O)[C@@H]2C[C@@H](O)CN2C(=O)[C@@H](NC(=O)COCCCCOc2ccc(-c3ccc(N4C(=S)N(c5ccc(C#N)c(C(F)(F)F)c5)C(=O)C4(C)C)cc3)cc2)C(C)(C)C)cc1` [ARCC-4, (4R)-1-((S)-2-(2-(4-((4′-(3-(4-cyano-3-(trifluoromethyl)phenyl)-5,5-dimethyl-4-oxo-2-thioxoimidazolidin-1-yl)-[1,1′-biphenyl]-4-yl)oxy)butoxy)acetamido)-3,3-dimethylbutanoyl)-4-hydroxy-N-(4-(4-methylthiazol-5-yl)benzyl)pyrrolidine-2-carboxamide], for which, in test [1], the “Inducing apoptosis and inhibiting proliferation, compared with enzalutamide” value was “more potent and effective than enzalutamide”.
What is called Kd is the constant that tells how readily two partners part at equilibrium. Turning to `Cc1cc([C@H](C(=O)N2C[C@H](O)C[C@H]2C(=O)N[C@@H](CC(=O)NCCOCCOCCOCCNC(=O)c2ccc3c(c2)C(=O)OC32c3ccc(O)cc3Oc3cc(O)ccc32)c2ccc(-c3scnc3C)cc2)C(C)C)on1` [HXC78, (2S,4R)—N—((S)-1-(3′,6′-dihydroxy-3-oxo-3H-spiro[isobenzofuran-1,9′-xanthen]-5-yl)-17-(4-(4-methylthiazol-5-yl)phenyl)-1,15-dioxo-5,8,11-trioxa-2,14-diazaheptadecan-17-yl)-4-hydroxy-1-((R)-3-methyl-2-(3-methylisoxazol-5-yl)butanoyl)pyrrolidine-2-carboxamide, reference compound], binding on VHL-ElonginBC complex (tracer binding to VHL complex (VHL, Elongin B, Elongin C)) was characterised by a dissociation constant (Kd) of 0.0024 µM.
Take `Cc1ncsc1-c1ccc(CNC(=O)C2C[C@@H](O)CN2C(=O)[C@@H](NC(=O)CCCCCNC(=O)c2ccc(N3C(=S)N(c4ccc(C#N)c(C(F)(F)F)c4)C(=O)C3(C)C)cc2F)C(C)(C)C)cc1` (stereo partly drawn) [Compound 11, (4R)-1-((S)-2-(6-(4-(3-(4-Cyano-3-(trifluoromethyl)phenyl)-5,5-dimethyl-4-oxo-2-thioxoimidazolidin-1-yl)-2-fluorobenzamido)hexanamido)-3,3-dimethylbutanoyl)-4-hydroxy-N-(4-(4-methylthiazol-5-yl)benzyl)pyrrolidine-2-carboxamide]: the Dmax at 0.1 µM on AR protein (setting [2]) worked out at 11%. At AR protein (setting [3]), the Dmax at 1 µM turned out to be 25%. In addition, the Dmax at 10 µM on AR protein (setting [4]) was determined as 29%.
As to `Cc1cc([C@H](C(=O)N2C[C@H](O)C[C@H]2C(=O)N[C@@H](CC(=O)N2CCC(N3CCC(C#Cc4ccc(Cc5c(C)nn(-c6ccc(C#N)c(Cl)c6)c5C)cc4)CC3)CC2)c2ccc(-c3scnc3C)cc2)C(C)C)on1` [Compound 33, (2S,4R)—N—((S)-3-(4-((4-((1-(3-Chloro-4-cyanophenyl)-3,5-dimethyl-1H-pyrazol-4-yl)methyl)phenyl)ethynyl)-[1,4′-bipiperidin]-1′-yl)-1-(4-(4-methylthiazol-5-yl)phenyl)-3-oxopropyl)-4-hydroxy-1-((R)-3-methyl-2-(3-methylisoxazol-5-yl)butanoyl)pyrrolidine-2-carboxamide], on AR protein (6 h), the Dmax at 0.1 µM worked out at 65%, the Dmax at 1 µM worked out at 93% and the Dmax at 10 µM was 78%.
Take `Cc1ncsc1-c1ccc([C@@H](CC(=O)N2CCC(N3CCC(C#Cc4ccc(C(=O)N[C@H]5C(C)(C)[C@H](Oc6ccc(C#N)c(Cl)c6)C5(C)C)cc4)CC3)CC2)NC(=O)[C@@H]2C[C@@H](O)CN2C(=O)[C@@H](NC(=O)C2(F)CC2)C(C)(C)C)cc1` [Compound 37, (2S,4R)—N—((R)-3-(4-((4-(((1r,3r)-3-(3-Chloro-4-cyanophenoxy)-2,2,4,4-tetramethyl-cyclobutyl)carbamoyl)phenyl)ethynyl)-[1,4′-bipiperidin]-1′-yl)-1-(4-(4-methylthiazol-5-yl)phenyl)-3-oxopropyl)-1-((S)-2-(1-fluorocyclopropane-1-carboxamido)-3,3-dimethyl-butanoyl)-4-hydroxypyrrolidine-2-carboxamide]: the “% AR protein degradation in LNCaP Cells” value at AR protein (setting [2]), on AR protein (setting [3]) and at AR protein (setting [4]) was below 5% each time.
Usually IC50 stands for the concentration that gives 50% inhibition. On VHL-ElonginBC complex (FP competition, VHL protein and fluorescent probe both 5 nM), `CC(=O)N[C@H](C(=O)N1C[C@H](O)C[C@H]1C(=O)N[C@@H](C)c1ccc(-c2scnc2C)cc1)C(C)(C)C` [VHL-b, (2S,4R)-1-((S)-2-acetamido-3,3-dimethylbutanoyl)-4-hydroxy-N—((S)-1-(4-(4-methylthiazol-5-yl)phenyl)ethyl)pyrrolidine-2-carboxamide] had an IC50 of 0.164 ± 0.013 µM.
